Key:
[1] = biological target: T1, recombinant human hAAC (human αA-crystallin) (Homo sapiens, UniProt P02489); assay: Protection from Ca+2 and UVC induced aggregation of recombinant human alpha-A crystallin (absorbance / SDS-PAGE); assay type: biochemical; conditions: for Gel: SDS-PAGE, unaggregated AAC after UVC, compounds tested at 500 μM; for EC50: concentration needed to prevent 50% of hAAC from forming HMW aggregates when exposed to UVC in presence of Ca+2, calculated using SDS-PAGE, read-out: EC50 Biochemical
T1 sequence (P02489 1-173): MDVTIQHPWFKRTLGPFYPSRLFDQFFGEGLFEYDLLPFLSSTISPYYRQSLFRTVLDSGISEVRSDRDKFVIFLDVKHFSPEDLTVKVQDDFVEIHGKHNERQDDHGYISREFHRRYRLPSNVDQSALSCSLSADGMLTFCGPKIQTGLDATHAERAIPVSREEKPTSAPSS
Description: FIG. 2A: SDS-PAGE showing the protection against UVC induced aggregation of human α-A-crystallin (hAAC) by disulfide and related SDMs. Shown are also efficacy of non-related SDMs. The compounds were tested at 500 μM concentration.
The potency of compounds to provide protection from Ca^+2 and UVC induced aggregation of alpha-A crystalline (ACC) was measured by monitoring the effect of Ca^+2 and UVC on recombinant human hAAC. hAAC forms HMW aggregates when exposed to UVC radiation in the presence of 10 mM Ca^+2. The aggregates lead to increased absorbance. Stock compound solutions (made in DMSO) were added to recombinant hAAC (100 ug/ml) at desired concentrations. The hAAC, with the added compound, was incubated at room temperature for 1 hour, followed by addition of 10 μl of 200 mM CaCl2) and further incubation for 5 minutes. Then, absorbance was recorded at 400 nm (T=0 Minute) followed by exposure to UVC (254 nm, 480 mJ/cm^2 per minute). Absorbance was measured again at 15 and 30 minutes. To control for compound related effects, assays were performed with or without AAC in triplicate. Percent protection or change in fold-decrease in aggregation were computed using the measured differences in absorbance. DMSO was used as control. EC50 values were calculated using the SDS-PAGE, which is defined as the concentration of SMD needed to prevent 50% of hAAC from forming HMW aggregates when exposed to UVC in presence of Ca^+2 [FIGS. 2A-2B].

[2] = test system: porcine lenses; assay: Ex vivo lens culture: protection from UV-induced opacification; conditions: porcine lenses cultured ex vivo
Text: To predict whether SMDs could prevent opacification in animal models and ultimately in human patients, we assessed their ability to protect intact lenses cultured ex vivo from UV-induced opacification. As fresh human lenses are difficult to obtain, porcine lenses were used for the ex vivo studies. Porcine lenses are easy to acquire (Sierra for Medical Science, Inc., Whittier, CA) and have been used previously in ex vivo models of Presbyopia. As predicted by our biochemical assays, SMDs prevents UV-induced opacification of porcine lenses ex vivo.

Row | EC50 [1] | Compound | Gel [1] | Ex-vivo [2]
1 | – | Cc1ccnc(N2CCSSCC2)c1[N+](=O)[O-] [Compound 35] | ++ (″++″ score = >50% unaggregated AAC) | –
2 | 365 µM | O=C(CSSCC(=O)Nc1cccc([N+](=O)[O-])c1)Nc1cccc([N+](=O)[O-])c1 [Compound 40] | + (″+″ score = >20% to 50% unaggregated AAC) | –
3 | 370 µM | O=C1NC(=O)c2cc(NC(=O)N3CCSSCC3)ccc21 [Compound 37] | ++ (″++″ score = >50% unaggregated AAC) | –
4 | – | O=C(O)Cc1ccc(S(=O)(=O)N2CCOCC2)s1 [Compound 30] | ++ (″++″ score = >50% unaggregated AAC) | –
5 | – | CC(C)NS(=O)(=O)c1cccc(C(=O)O)c1 [Compound 24] | + (″+″ score = >20% to 50% unaggregated AAC) | ++ (″++″ score = >50% unaggregated AAC)
6 | – | CCC1c2ccccc2-c2cc(NC(=O)CSSCC(=O)Nc3ccc4c(c3)c3ccccc3n4CC)ccc21 (centres unmarked) [Compound 54] | ++ (″++″ score = >50% unaggregated AAC) | –
7 | – | O=C(O)c1cccc(S(=O)(=O)N2CCOCC2)c1 [Compound 29] | + (″+″ score = >20% to 50% unaggregated AAC) | –
8 | – | O=C(O)c1cccc(S(=O)(=O)NC2CC2)c1 [Compound 25] | + (″+″ score = >20% to 50% unaggregated AAC) | ++ (″++″ score = >50% unaggregated AAC)
9 | 410 µM | CN=C(NC#N)NCCSCc1csc(N=C(C)C)n1 [Compound 32] | ++ (″++″ score = >50% unaggregated AAC) | –
10 | 395 µM | O=C(O)c1ccccc1SSc1ccccc1C(=O)O [Compound 4] | ++ (″++″ score = >50% unaggregated AAC) | –
11 | – | Nc1ccc(SSc2ccc(N)cc2)cc1 [Compound 2] | ++ (″++″ score = >50% unaggregated AAC) | –
12 | – | CCCNS(=O)(=O)c1cccc(C(C)=O)c1 [Compound 22] | + (″+″ score = >20% to 50% unaggregated AAC) | –
13 | – | Cc1nn(CCC(=O)N2CCSSCC2)c(C)c1[N+](=O)[O-] [Compound 38] | + (″+″ score = >20% to 50% unaggregated AAC) | –
14 | – | O=C(O)c1cc(S(=O)(=O)N2CCCC2)ccc1O [Compound 26] | ++ (″++″ score = >50% unaggregated AAC) | –
15 | 495 µM | CN/C(=C\[N+](=O)[O-])NCCSCc1c[nH]c(CN(C)C)n1 [Compound 11] | ++ (″++″ score = >50% unaggregated AAC) | ++ (″++″ score = >50% unaggregated AAC)
16 | – | O=C(O)c1ccc(S(=O)(=O)N2CCCCC2)cc1 [Compound 27] | + (″+″ score = >20% to 50% unaggregated AAC) | –
17 | – | Cc1ncc(CSSCc2cnc(C)c(O)c2CO)c(CO)c1O [Compound 46] | + (″+″ score = >20% to 50% unaggregated AAC) | –
18 | – | COc1ccccc1NC(=O)CSSCC(=O)Nc1ccccc1OC [Compound 55] | ++ (″++″ score = >50% unaggregated AAC) | –
19 | – | CC(=O)Nc1ccc(SSc2ccc(NC(C)=O)cc2)cc1 [Compound 16] | + (″+″ score = >20% to 50% unaggregated AAC) | –
20 | – | O=C(O)CCNS(=O)(=O)c1ccc(F)cc1 [Compound 23] | + (″+″ score = >20% to 50% unaggregated AAC) | –

Row | EC50 [1] | Compound | Gel [1] | Ex-vivo [2]
21 | – | Nc1nc(N2CCSSCC2)ncc1[N+](=O)[O-] [Compound 36] | + (″+″ score = >20% to 50% unaggregated AAC) | –
22 | – | O=C(O)CCC(=O)Nc1ccc(SSc2ccc(NC(=O)CCC(=O)O)cc2)cc1 [Compound 43] | ++ (″++″ score = >50% unaggregated AAC) | –
23 | – | Cc1cc(N2CCSSCC2)ncc1[N+](=O)[O-] [Compound 34] | ++ (″++″ score = >50% unaggregated AAC) | –
24 | – | Cc1ccc(NC(=O)C(C)SSC(C)C(=O)Nc2ccc(C)c(F)c2)cc1F (centres unmarked) [Compound 41] | + (″+″ score = >20% to 50% unaggregated AAC) | –
25 | – | O=C(NCCOc1ccccc1)SSC(=O)NCCOc1ccccc1 [Compound 45] | + (″+″ score = >20% to 50% unaggregated AAC) | –
26 | – | Nc1cccc(SSc2cccc(N)c2)c1 [Compound 5] | ++ (″++″ score = >50% unaggregated AAC) | –
27 | – | Fc1ccccc1SSc1ccccc1F [Compound 7] | + (″+″ score = >20% to 50% unaggregated AAC) | –
28 | – | CC(C)Cc1ccccc1NC(=O)CSSCC(=O)Nc1ccccc1CC(C)C [Compound 51] | ++ (″++″ score = >50% unaggregated AAC) | –
29 | – | CNC(C[N+](=O)[O-])NCCSCc1ccc(CN(C)C)o1.Cl (centres unmarked) [Compound 31] | + (″+″ score = >20% to 50% unaggregated AAC) | –
30 | – | O=C(CSSCC(=O)Nc1cccc2ccccc12)Nc1cccc2ccccc12 [Compound 48] | + (″+″ score = >20% to 50% unaggregated AAC) | –
31 | – | O=C(O)c1cccc(S(=O)(=O)N2CCCCC2)c1 [Compound 28] | + (″+″ score = >20% to 50% unaggregated AAC) | –
32 | – | O=[N+]([O-])c1cc(S(=O)(=O)C(F)(F)C(F)(F)F)ccc1SSc1ccc(S(=O)(=O)C(F)(F)C(F)(F)F)cc1[N+](=O)[O-] [Compound 18] | + (″+″ score = >20% to 50% unaggregated AAC) | –
33 | – | COC(=O)c1ccccc1SSc1ccccc1C(=O)OC [Compound 21] | + (″+″ score = >20% to 50% unaggregated AAC) | –
34 | – | O=C(CSSCC(=O)Nc1ccc2ccccc2c1)Nc1ccc2ccccc2c1 [Compound 44] | ++ (″++″ score = >50% unaggregated AAC) | –
35 | – | O=C(O)c1ccc(SSc2ccc(C(=O)O)cc2)cc1 [Compound 1] | ++ (″++″ score = >50% unaggregated AAC) | –
36 | – | N#Cc1cc(C(=O)O)c(O)nc1SSc1nc(O)c(C(=O)O)cc1C#N [Compound 50] | + (″+″ score = >20% to 50% unaggregated AAC) | –
37 | – | COc1ccc(SSc2ccc(OC)cc2)cc1 [Compound 15] | + (″+″ score = >20% to 50% unaggregated AAC) | –
38 | – | O=[N+]([O-])c1cc(C(F)(F)F)ccc1SSc1ccc(C(F)(F)F)cc1[N+](=O)[O-] [Compound 14] | + (″+″ score = >20% to 50% unaggregated AAC) | –
39 | – | O=C(O)c1nsnc1NCCSSCCNc1nsnc1C(=O)O [Compound 42] | + (″+″ score = >20% to 50% unaggregated AAC) | –

Row | Compound | EC50 [1] | Gel [1] | Ex-vivo [2]
40 | O=C(O)c1cc(SSc2ccc([N+](=O)[O-])c(C(=O)O)c2)ccc1[N+](=O)[O-] [Compound 13] | 191 µM | ++ (″++″ score = >50% unaggregated AAC) | ++ (″++″ score = >50% unaggregated AAC)

Reference: patent US20250019352A1, “PHARMACOLOGICAL AGENTS FOR TREATING OPHTHALMIC DISEASES” (Plex Pharmaceuticals, Inc., priority 2021, published 2025)
